Reference: patent US9801844B2, “Methods and compositions for the treatment of cancer” (priority 2012, dated 2017)
Several values for one entry are separate records, joined by “and”; a condition that tells them apart may be missing. Equal values may be shown once. Read-outs that look alike come from different tables or passages of the source.

Experiments:
[1] = test system: MDA-MB-453 Her2 overexpressing human breast cancer cells; experiment: MTT cell proliferation assay on MDA-MB-453 cells; assay type: cell-based; settings: for Proliferation (relative to control = 1) / % proliferation: MDA-MB-453, 96 h
Experimental: Cells were exposed to increasing concentrations of agents for 96 h and the number of viable cells determined by the MTT assay.

ER-negative SUM149 cells = experiment: MTT cell proliferation assay on SUM149 cells; assay type: cell-based; settings: read-out: IC50 growth inhibition
Experimental: (§1) MDA-MB-453 (ER negative, Her2 overexpressing), MDA-MB-468 (triple negative) and MCF7 (ER positive, Her2 low) cells, HT29 (p53 positive human colon cancer cells) (ATCC, Manassas, Va.) were grown in Dulbecco's Modified Eagle's medium (DMEM) (Gibco BRL Life Technologies, Inc., Rockville, Md.) containing 10% (v/v) fetal bovine serum (FBS) (Gibco BRL) at 37° C., 5% C02. SUM 149 (Her2 overexpressing, ER low) (the gift of Dr. R. Parsons, Columbia University Medical Center, New York, N.Y.) were cultivated in Ham's F-12 medium with 10% FBS. MCF7 and MCF7/Her2-18 (MCF7 cells transfected with a full length Her2 cDNA coding region, 45-fold increase Her2) were the kind gift of Dr. Dennis Slamon (Los Angeles, Calif.). These cells were maintained in RPMI supplemented with 10% FBS plus glutamine (1%) and PSF (1%) (Gibco, Rockville Md.).
MTT assay: the MTT {3-(4,5-dimethyl-2-thiazol)-2,5-diphenyl-2H tetrazolilum bromide} (Dojindo; Tokyo, Japan) cell proliferation assay system (Roche Diagnostic, Mannheim, Germany) was used to determine the sensitivity of the various cell lines to agents. Cells were seeded at 1×10^4 cells/well in 96-well plates and allowed to attach for 24 h. […] The cells were treated for 96 or 120 h, after which they were incubated with MTT reagents and the absorbance read at 650 and 575 nm. For cell growth assays, the data are expressed as mean+/−standard deviation. […]

[2] = test system: MDA-MB-468 triple negative breast cancer cells; experiment: MTT cell proliferation assay on MDA-MB-468 cells; assay type: cell-based, human; settings: for IC50: read-out: IC50 growth inhibition
Experimental: as §1
MTT assay: the MTT {3-(4,5-dimethyl-2-thiazol)-2,5-diphenyl-2H tetrazolilum bromide} (Dojindo; Tokyo, Japan) cell proliferation assay system (Roche Diagnostic, Mannheim, Germany) was used to determine the sensitivity of the various cell lines to agents. Cells were seeded at 1×10^4 cells/well in 96-well plates and allowed to attach for 24 h. The medium was replaced with fresh medium containing DMSO or compound. The cells were treated for 96 or 120 h, after which they were incubated with MTT reagents and the absorbance read at 650 and 575 nm. For cell growth assays, the data are expressed as mean+/−standard deviation. Control and treated cells were compared using the student's t-test (p<0.05).
To determine the Combination Index (CI), cells were treated with all combinations of 4 or 5 concentrations of each of the agents tested and a solvent control. The results of the MTT assay were analyzed for possible synergistic effects using the median effect principle. Variable ratios of drugs were employees and mutually exclusive equations were assumed.

MDA-MB-468 cells = experiment: Real-time RT-PCR of specific mRNAs in MDA-MB-468 cells; assay type: cell-based, human; settings: for increase in expression of RNA of CDKN1A: 4 μg/ml, MDA-MB-468
Experimental: (§2) Real-time RT-PCR analysis was performed on 2 technical replicates of at least 2 biological sample replicates.
(§3) Real-time quantitative RT-PCR methods were used to determine the nature of the RNA induced by treatment with CA, using the Real Time PCR machine Stratagene MX3005P QPCR System.
(§4) Real-time RT-PCR analysis was performed to examine the mode of action of CA. In MDA-MB-468 cells, CA at 4 μg/ml induced an increase in expression of RNA of the tumor suppressor gene CDKN1A; for MDA-MB-468 cells (6 h: 1.51-logfold; 24 h: 1.61-logfold) (FIG. 3A); for SUM149 cells (6 h: 2.7-logfold). CA had little effect on the expression of the tumor suppressor gene BRCA1.

SUM149 cells = experiment: Real-time RT-PCR of specific mRNAs in SUM149 cells; assay type: cell-based; settings: 4 μg/ml, 6 h
Experimental: as §2, §3, §4

[3] = test system: SKOV3 (Her2 overexpressing) human ovarian cancer cells; experiment: MTT cell proliferation assay on SKOV3 cells; assay type: cell-based; settings: SKOV3, 96 h
Experimental: SKOV3 (Her2 overexpressing) ovarian cancer cells (ATCC, Manassas, Va.), were grown in McCoy's media (Gibco BRL Life Technologies, Inc., Rockville, Md.) containing 10% (v/v) fetal bovine serum (FBS) (Gibco BRL) at 37° C., 5% C02, plus Penn-Strep (Sigma).
The MTT [3-(4,5-dimethyl-2-thiazol)-2,5-diphenyl-2H tetrazolilum bromide] (Dojindo; Tokyo, Japan) cell proliferation assay system (Roche Diagnostic, Mannheim, Germany) was used to determine the sensitivity of the cell lines to agents. Cells were seeded at 1×10^4 cells/well in 96-well plates and allowed to attach for 24 h. The medium was replaced with fresh medium containing DMSO or compound. The cells were treated for 96 h, after which the media was replaced with fresh media; the cells were incubated with MTT reagents and the absorbance read at 650 and 575 nm. The 650 reading was subtracted from the 575 reading to correct for background absorbance.

[4] = MDA-MB-468 cells, MTT assay, listed as CA

With `CC(C)c1cc2c(c(O)c1O)[C@@]1(C(=O)O)CCCC(C)(C)[C@@H]1CC2` [carnosic acid] the “inhibition of cell growth” value ([1]; 0.5 μg/ml, 96 h, MTT) was “no inhibition”, the “Proliferation (relative to control = 1)” value ([1]; 0.5 ug/ml, MTT) was 1.07 and the “% proliferation” value ([1]; 0.5 μg/ml, MTT) was 107%. For the same molecule, the “Proliferation (relative to control = 1)” value ([1]; 2 ug/ml, MTT) was 0.989, the “% proliferation” value ([1]; 2 μg/ml, MTT) was 98.9% and the “Proliferation (relative to control = 1)” value ([1]; 5 ug/ml, MTT) was 0.915. For the same molecule, the “% proliferation” value ([1]; 5 μg/ml, MTT) was 91.5%, the “Proliferation (relative to control = 1)” value ([1]; 10 ug/ml, MTT) was 0.758 and the “Proliferation (relative to control = 1)” value ([1]; 20 ug/ml, MTT) was 0.573. The IC50 ([1]; Homo sapiens, MDA-MB-453 cells, MTT assay, read-out: IC50, concentration that caused 50% inhibition of cell proliferation) was 3 µg/mL and 7 µM, the IC50 (ER-negative SUM149 cells) was 1.7 µg/mL and 5.1 µM and the IC50 ([2]; Homo sapiens, MDA-MB-468, MDA-MB-468 cells, MTT assay) was 2 µg/mL and 6 µM. For the same molecule, the viability at 6 µM ([2]; Homo sapiens, MDA-MB-468, CA 2 μg/ml (6 μM) alone, read-out: percent viable cells) was 89.4%, the IC50 growth inhibition [2, 4] was 3 mg/L and the IC50 [2, 4] was 9 µM. The “increase in expression of RNA of CDKN1A” value (MDA-MB-468 cells; 6 h) was 1.51 logfold, the “increase in expression of RNA of CDKN1A” value (MDA-MB-468 cells; 24 h) was 1.61 logfold and the “effect on expression of the vitamin D receptor” value (MDA-MB-468 cells; 6 h, real-time RT-PCR) was “slight increase in expression”. The “effect on expression of BRCA1” value (MDA-MB-468 cells; real-time RT-PCR) was “little effect”, the “effect on expression of CYP24A1” value (MDA-MB-468 cells; real-time RT-PCR) was “significant increase in expression” and the “increase in expression of RNA of CDKN1A” value (SUM149 cells) was 2.7 logfold. For the same molecule, the “% cell proliferation” value ([3]; 5 μg/ml) was 105.3%, the “% cell proliferation” value ([3]; 10 μg/ml) was 56.7% and the “% cell proliferation” value ([3]; 15 μg/ml) was 8.1%. For the same molecule, the “% cell proliferation” value ([3]; 20 μg/ml) was 6.7% and the IC50 ([3]; Homo sapiens, SK-OV-3, MTT, read-out: IC50, concentration that caused 50% inhibition of cell growth) was ~10.5 µg/mL and ~31.6 µM.
